Key:
[1] = molecular target: T1, h-GABA-A α5β3γ2 (Homo sapiens, UniProt P18507+P31644); assay: Two-electrode voltage clamp electrophysiology in Xenopus laevis oocytes expressing GABAA receptors, modulation of GABA EC20 current; assay type: cell-based; set-up: host or cells: Xenopus laevis oocytes micro-injected with RNA transcripts of the subunits
How it was run: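 Human α5β3γ2 GABAA receptors were expressed in Xenopus oocytes by RNA injection, with γ2 RNA 5–10-fold higher, and recorded 3–5 days later by two-electrode voltage clamp at −80 mV at room temperature. The test compound, at about 30× its Ki, was co-applied during a second GABA EC20 pulse. Efficacy is the extremum of the point-by-point ratio to the first response, expressed as 100*(Fold increase−1).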

[2] = molecular target: T1, h-GABA-A α5β3γ2; assay: [3H]flumazenil competition binding assay, membranes of HEK293 cells expressing GABAA receptors
How it was run: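 Membranes from HEK293 cells transiently expressing human α5β3γ2 GABAA receptors, in Krebs-tris buffer pH 7.5, competed against [3H]flumazenil for 1 hour at 4° C to equilibrium. Bound radioactivity collected on GF/C filters and counted by liquid scintillation; Ki values are means of two determinations.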

[3] = % modulation of GABA EC20 = 100*(Fold increase-1), Table 1
[4] = test compound at approx. 30 fold its Ki, GABA at EC20, Table 1
[5] = displacement of [3H]-Flumazenil 0.5 nM, HEK293 cells expressing human receptors, mean of two determinations, Table 1

SMILES | Efficacy (GABA) % [1, 3] [%] | Fold increase h-GABA-A α5β3γ2 oocyte [1, 4] | Ki [2, 5] [nM] | Efficacy (GABA) % ([1]; reference compounds, % modulation of GABA EC20, Table 2) [%] | Fold increase h-GABA-A α5β3γ2 oocyte ([1]; reference compounds, Table 2) | Ki ([2]; reference compounds, Table 2) [nM]
Cc1onc(-c2ccc(Cl)nc2)c1Cn1ncc(N2CCN(c3cccnc3)CC2)cc1=O [Example 278, 2-((3-(6-chloropyridin-3-yl)-5-methylisoxazol-4-yl)methyl)-5-(4-(pyridin-3-yl)piperazin-1-yl)pyridazin-3(2H)-one] | 108 | 2.08 | 8 | – | – | –
Cc1ccc(-c2noc(C)c2Cn2ncc(N3CC(Oc4ccccn4)C3)cc2=O)cn1 [Example 124, 2-[[5-methyl-3-(6-methyl-3-pyridyl)isoxazol-4-yl]methyl]-5-[3-(2-pyridyloxy)azetidin-1-yl]pyridazin-3-one] | 148 | 2.48 | 12 | – | – | –
Cc1ccc(-c2noc(C)c2Cn2ncc(N3CC(OCC(F)F)C3)cc2=O)cn1 [Example 206, 5-[3-(2,2-difluoroethoxy)azetidin-1-yl]-2-[[5-methyl-3-(6-methyl-3-pyridyl)isoxazol-4-yl]methyl]pyridazin-3-one] | 144 | 2.44 | 13.7 | – | – | –
Cc1ccc(-c2noc(C)c2Cn2ncc(N3CC4(CC(F)CCO4)C3)cc2=O)cn1 (single isomer, unassigned) [Example 274] | 110 | 2.1 | 15.8 | – | – | –
Cc1onc(-c2ccccc2)c1COc1ccc(N2CCOCC2)nn1 [RO-036, reference compound] | – | – | – | −28 | 0.72 | 9.45
COc1ccccc1C1CCN(c2cnn(Cc3c(-c4ccc(C)nc4)noc3C)c(=O)c2)CC1 [Example 61, 5-[4-(2-methoxyphenyl)-1-piperidyl]-2-[[5-methyl-3-(6-methyl-3-pyridyl)isoxazol-4-yl]methyl]pyridazin-3-one] | 76 | 1.76 | 15.4 | – | – | –
Cc1ccc(-c2noc(C)c2Cn2ncc(N3CC4(CC(C(F)(F)F)CCO4)C3)cc2=O)nn1 (single isomer, unassigned) [Example 312] | 127 | 2.27 | 6.5 | – | – | –
Cc1ccc(-c2noc(C)c2Cn2ncc(N3CCOCC3)cc2=O)cn1 [Example 22, 2-[[5-methyl-3-(6-methyl-3-pyridyl)isoxazol-4-yl]methyl]-5-morpholino-pyridazin-3-one] | 166 | 2.66 | 3.2 | – | – | –
Cc1ccc(-c2noc(C)c2Cn2ncc(N3CC4CC(C3)O4)cc2=O)cn1 [Example 100, 2-[[5-methyl-3-(6-methyl-3-pyridyl)isoxazol-4-yl]methyl]-5-(6-oxa-3-azabicyclo[3.1.1]heptan-3-yl)pyridazin-3-one] | 105 | 2.05 | 12.2 | – | – | –
Cc1onc(-c2ccc(Cl)nc2)c1Cn1ncc(N2CCC3(CC2)CC(F)CCO3)cc1=O (single isomer, unassigned) [Example 331] | 159 | 2.59 | 17.6 | – | – | –
CO[C@@H]1COC2(C1)CN(c1cnn(Cc3c(-c4ccc(C)nc4)noc3C)c(=O)c1)C2 [Example 133, 5-[(7S)-7-methoxy-5-oxa-2-azaspiro[3.4]octan-2-yl]-2-[[5-methyl-3-(6-methyl-3-pyridyl)isoxazol-4-yl]methyl]pyridazin-3-one] | 172 | 2.72 | 81.2 | – | – | –

Further lines, with some results ahead:

Efficacy (GABA) % [1, 3] [%] | Fold increase h-GABA-A α5β3γ2 oocyte [1, 4] | Ki [2, 5] [nM] | SMILES | Efficacy (GABA) % ([1]; reference compounds, % modulation of GABA EC20, Table 2) [%] | Fold increase h-GABA-A α5β3γ2 oocyte ([1]; reference compounds, Table 2) | Ki ([2]; reference compounds, Table 2) [nM]
182 | 2.82 | 3.3 | Cc1ccc(-c2noc(C)c2Cn2ncc(N3CCN[C@@H](C)C3)cc2=O)cn1 [Example 51, 2-[[5-methyl-3-(6-methyl-3-pyridyl)isoxazol-4-yl]methyl]-5-[(3S)-3-methylpiperazin-1-yl]pyridazin-3-one] | – | – | –
228 | 3.28 | 1.4 | Cc1ccc(-c2noc(C)c2Cn2ncc(N3C[C@H](C)O[C@@H](C)C3)cc2=O)cn1 (single isomer, unassigned) [Example 29, 5-[(2S,6S)-2,6-dimethylmorpholin-4-yl]-2-[[5-methyl-3-(6-methyl-3-pyridyl)isoxazol-4-yl]methyl]pyridazin-3-one or enantiomer] | – | – | –
60 | 1.6 | 2.2 | Cc1onc(-c2ncc(C(F)(F)F)cn2)c1Cn1ncc(N2CC(OC3CC3)C2)cc1=O [Example 249, 5-(3-cyclopropoxyazetidin-1-yl)-2-((5-methyl-3-(5-(trifluoromethyl)pyrimidin-2-yl)isoxazol-4-yl)methyl)pyridazin-3(2H)-one] | – | – | –
209 | 3.09 | 70.4 | Cc1ccc(-c2noc(C)c2Cn2ncc(N3CC4(C3)CN(C3CC3)C4)cc2=O)cn1 [Example 58, 5-(2-cyclopropyl-2,6-diazaspiro[3.3]heptan-6-yl)-2-[[5-methyl-3-(6-methyl-3-pyridyl)isoxazol-4-yl]methyl]pyridazin-3-one] | – | – | –
253 | 3.53 | 1 | Cc1ccc(-c2noc(C)c2Cn2ncc(N3C[C@@H](C)O[C@@H](C)C3)cc2=O)cn1 [Example 7, 5-(cis-2,6-dimethylmorpholin-4-yl)-2-((5-methyl-3-(6-methylpyridin-3-yl)-1,2-oxazol-4-yl)methyl)pyridazin-3-one] | – | – | –
107 | 2.07 | 10.5 | Cc1ccc(-c2noc(C)c2Cn2ncc(-c3ccccc3)cc2=O)cn1 [Example 67, 2-((5-methyl-3-(6-methylpyridin-3-yl)isoxazol-4-yl)methyl)-5-phenylpyridazin-3(2H)-one] | – | – | –
71 | 1.71 | 6.4 | COc1ccc(-c2cnn(Cc3c(-c4ccc(C)nc4)noc3C)c(=O)c2)cc1 [Example 76, 5-(4-methoxyphenyl)-2-[[5-methyl-3-(6-methylpyridin-3-yl)-1,2-oxazol-4-yl]methyl]pyridazin-3-one] | – | – | –
40 | 1.4 | 18.8 | Cc1onc(-c2ccc(Cl)cc2)c1Cn1ncc(N2CC3(CCCO3)C2)cc1=O [Example 162, 2-[[3-(4-chlorophenyl)-5-methyl-isoxazol-4-yl]methyl]-5-(5-oxa-2-azaspiro[3.4]octan-2-yl)pyridazin-3-one] | – | – | –
253 | 3.53 | 2 | Cc1ncc(-c2noc(C)c2Cn2ncc(N3C[C@@H](C)O[C@@H](C)C3)cc2=O)cc1F [Example 205, 5-((2R,6S)-2,6-dimethylmorpholino)-2-((3-(5-fluoro-6-methylpyridin-3-yl)-5-methylisoxazol-4-yl)methyl)pyridazin-3(2H)-one] | – | – | –
145 | 2.45 | 13.8 | Cc1ccc(-c2noc(C)c2Cn2ncc(N3CCN(C4CC4)CC3)cc2=O)cn1 [Example 36, 5-(4-cyclopropylpiperazin-1-yl)-2-[[5-methyl-3-(6-methyl-3-pyridyl)isoxazol-4-yl]methyl]pyridazin-3-one] | – | – | –
104 | 2.04 | 37 | Cc1onc(-c2ccc(Cl)nc2)c1Cn1ncc(N2CC3(C[C@H](F)CO3)C2)cc1=O [Example 232, (S)-2-((3-(6-chloropyridin-3-yl)-5-methylisoxazol-4-yl)methyl)-5-(7-fluoro-5-oxa-2-azaspiro[3.4]octan-2-yl)pyridazin-3(2H)-one] | – | – | –
155 | 2.55 | 26.2 | CC(=O)N(C)[C@@H]1CCN(c2cnn(Cc3c(-c4ccc(C)nc4)noc3C)c(=O)c2)C1 [Example 2, N-methyl-N-[(3R)-1-[1-[[5-methyl-3-(6-methyl-3-pyridyl)isoxazol-4-yl]methyl]-6-oxo-pyridazin-4-yl]pyrrolidin-3-yl]acetamide] | – | – | –
125 | 2.25 | 28.8 | Cc1ccc(-c2noc(C)c2Cn2ncc(N3CCN(C(C)C)[C@@H](C)C3)cc2=O)cn1 [Example 184, 5-[(3S)-4-isopropyl-3-methyl-piperazin-1-yl]-2-[[5-methyl-3-(6-methyl-3-pyridyl)isoxazol-4-yl]methyl]pyridazin-3-one] | – | – | –
86 | 1.86 | 13.1 | Cc1ncc(-c2noc(C)c2Cn2ncc(N(C)C)cc2=O)cc1F [Example 102, 5-(dimethylamino)-2-[[3-(5-fluoro-6-methyl-3-pyridyl)-5-methyl-isoxazol-4-yl]methyl]pyridazin-3-one] | – | – | –
133 | 2.33 | 8.6 | COc1ccc(-c2cnn(Cc3c(-c4ccc(C)nc4)noc3C)c(=O)c2)cc1F [Example 80, 5-(3-fluoro-4-methoxyphenyl)-2-((5-methyl-3-(6-methylpyridin-3-yl)isoxazol-4-yl)methyl)pyridazin-3(2H)-one] | – | – | –
